The text below walks through data of patent US20250295668A1, “METHODS FOR INDUCING COLANIC ACID BIOSYNTHESIS” (priority 2024, published 2025).

For test [1], the system named is wildtype E. coli. The test is described as follows: Colanic acid measurement (fucose quantification) in wildtype E. coli culture medium. In kind it is cell-based. The method, then: For colanic acid quantification, E. coli Keio mutants and the parental strain BW25113 were cultured overnight at 37° C. in M9 minimum medium [PMID: 28436966]. Bacteria were then removed by centrifugation and filtered for colanic acid measurement.
The desired bacterial strain was first inoculated and cultured in M9 minimum medium overnight at 37° C. to obtain the seeding culture. The OD 600 was measured, and the seeding bacteria were diluted to OD600=0.02 in M9 minimum medium for another 16 hours. After the incubation, bacterial cultures were collected in 50 mL tubes, spun down at 4,000 g at 4° C. for 30 min, filtered, and 25 mL of supernatant was collected per 50 ml conical tube. Ice-cold 100% ethanol (EtOH) was added to make a final 50% EtOH solution for precipitation, and the mixture was kept at 4° C. overnight. Once precipitation occurred, the liquid was carefully removed after centrifugation at 4,000 g at 4° C. for 50 min. The pellet was washed once with cold 80% EtOH and then air-dried in a hood. The pellet from every 50 mL culture was resuspended in 500 μL distilled H2O. The solution was sonicated for 60 minutes at 37° C., followed by centrifugation at 4000 g at 4° C. for 10 minutes. A 200 μL sample was mixed with 30 μL hydrochloric acid (320331-500 mL, Sigma-Aldrich) and boiled for 2 hours. Subsequently, 60 μL 5M NaOH and 150 μL NaHCO3/NaOH buffer were added to reach a pH of 6-8, calibrated by 1M HCl or NaOH solutions. The fucose quantification assay was then carried out using a K-FUCOSE kit (Megazyme) according to the manufacturer's protocol.
Next, colanic acid in the bacteria culture medium was quantified via monosaccharide-fucose-from acid-hydrolyzed polysaccharide precipitates. […] Calculations were performed to determine the equivalent dosage by weight in a mammalian subject. Briefly, a typical mouse consumes 5-10 ml of water per day and weighs between 30-40 g. Using the 1.8 μg/mL concentration, a lower bound of 0.225 mg/kg (0.0018 mg/mL×5 ml[…]0.04 kg) and a higher bound of 0.6 mg/kg (0.0018 mg/mL×10 ml÷0.03 kg) were identified. […] In wild-type bacteria treated with cephaloridine and Alon E. coli mutants colanic acid production increased during the exponential growth phase and remained elevated in the stationary phase (FIG. 1D).

For test [2], the system named is cps operon. The test is described as follows: Disk diffusion assay for cps induction, SG20781 cpsB::lacZ reporter. In kind it is cell-based, E. coli. The settings on record: SG20781, filter paper disks 10 or 100 μg, 24 hours at 37° C. The method, then: For antibiotic screening targeting cps expression, the SG20781 strain (MC4100 lon+cpsB10::lacZ Mu-immλ) was used. The bacteria were cultured overnight at 37° C. in Luria-Broth (LB) medium and evenly plated on X-gal (40 μg/mL) supplemented LB agar plates, and incubated overnight.
E. coli strain SG20781 was used to assess antibiotic cps induction via disk diffusion as previously described [PMID: 14553918]. In brief, an overnight bacteria culture was spread onto LB agar containing 0.1 mg ml-1 5-bromo-4-chloro-3-indolyl-β-D-galactoside (X-gal). […] The soaked filter papers were placed onto the bacteria-seeding plates and incubated for 24 hours at 37° C.
Certain β-lactam antibiotics trigger the overexpression of the cps operon in E. coli [PMID: 14553918]. To validate this finding, a disk diffusion assay was performed using SG20781, an E. coli strain that harbors a LacZ reporter for the cps operon transcriptional regulation. Using a colorimetric assay, an increased level of […] reacts with X-gal, resulting in an intensified blue coloration as a result of the transcriptional up-regulation of the cps operon.
In general terms: In agar diffusion tests the substance spreads into inoculated agar from a disc or well.

The target of test [3] is PBP4 (Escherichia coli, UniProt P24228). The settings on record: literature, PMID 25733506; cited from earlier work.

Turning to `CC1(C)S[C@@H]2[C@H](NC(=O)Cc3ccccc3)C(=O)N2[C@H]1C(=O)O` [penicillin G], in test [1] (penicillin G 5 μg/mL), the “colanic acid production vs untreated wildtype control” value is given as 3.25 fold. Also, the “cps induction (blue coloration)” value in test [2] is given as “promote various shades of blue coloration”. In addition, in test [3], the “affinity for PBP4” value is given as “higher affinity for PBP4”.

In the case of `CC1(C)S[C@@H]2[C@H](NC(=O)[C@H](N)c3ccccc3)C(=O)N2[C@H]1C(=O)O` [ampicillin], the “cps induction (blue coloration)” value in test [2] is listed as “promote various shades of blue coloration”. In addition, in test [3], the “affinity for PBP4” value is on record as “higher affinity for PBP4”.

In the case of `CC(=O)OCC1=C(C(=O)O)N2C(=O)[C@@H](NC(=O)Cc3cccs3)[C@H]2SC1` [cephalothin], the “colanic acid production vs untreated wildtype control” value in test [1] (cephalothin 0.625 μg/mL) is 3.5 fold. Moreover, the “cps induction (blue coloration)” value in test [2] is reported as “promote various shades of blue coloration”.

On to `CO/N=C(\C(=O)N[C@@H]1C(=O)N2C(C(=O)O)=C(COC(N)=O)CS[C@H]12)c1ccco1` [cefuroxime], for which the “cps induction (blue coloration)” value in test [2] was “promote various shades of blue coloration”.

For the molecule `Cc1nnc(SCC2=C(C(=O)O)N3C(=O)[C@@H](NC(=O)Cn4cnnn4)[C@H]3SC2)s1` [cefazolin], the “cps induction (blue coloration)” value in test [2] is given as “promote various shades of blue coloration”.

Consider `CC1(C)S[C@@H]2[C@H](NC(=O)C(C(=O)O)c3ccccc3)C(=O)N2[C@H]1C(=O)O` (stereo partly shown) [carbenicillin], for which, in test [2], the “cps induction (blue coloration)” value was “promote various shades of blue coloration”.
